In article PMC7764665, “Food (Matrix) Effects on Bioaccessibility and Intestinal Permeability of Major Olive Antioxidants” (Foods, 2020):
In brackets after ≈: the same amount, converted by molar mass. Several values for one entry are separate records, joined by “and”; a condition that tells them apart may be missing. Equal entries are not always repeated.

Legend:
[1] = Standardized static in vitro simulation of gastrointestinal digestion of OPE (bioaccessibility), alone or co-digested with food; type: in vitro ADME; settings: for bioaccessible amount after gastrointestinal digestion / amount in OPE before gastrointestinal digestion: OPE; for bioaccessible amount after gastrointestinal digestion: after simulated gastrointestinal digestion; for amount in OPE before gastrointestinal digestion: before digestion (start of the printed increase); for effect of standardized food model (SFM) on bioaccessibility: digestion with SFM compared to other applied methods
Description: Total polyphenols (total reductive capacity) of analyzed samples was assessed by Folin–Ciocalteu method that relies on the transfer of electrons in alkaline medium from phenolic (or other reductive) compounds to phosphomolybdic/phosphotungstic acid complexes, which are determined spectroscopically at 765 nm. Experiments were conducted according to the protocol described by Ainsworth and co-workers. Moreover, 20 µL of adequately diluted sample/standard/solvent (blank) were added in triplicate to 96-well plate (Thermo Fisher Scientific 130188, Rochester, NY, USA) and incubated at 37 °C with 50 µL of Folin Ciocalteu reagent (10% (v/v)) for 5 min. The 160 µL of Na2CO3 (700 mM) was added into each well, shaken, and incubated at 37 °C for 30 min. Absorbance was read at 765 nm and results were expressed as gallic acid equivalents (GAE). HTS and TS were identified and quantified by HPLC system (Waters Alliance 2695, Milford, MA, USA) coupled with a 2475 Multi λ detector (FLD) with Xenon lamp, according to slightly modified method of Tsarbopoulos and co-workers. Samples were prepared by filtration through 0.45 μm polyethersulfone (PES) syringe filters (Macherey–Nagel, Düren, Germany). Chromatographic separation was conducted by injecting 20 μL of sample on a reversed phase column (250 × 4.6 mm, 5 μm) (Agilent Zorbax Eclipse Plus C18, Santa Clara, CA, USA). Mobile phases were 0.05 M sodium acetate buffer pH 5 and acetonitrile with the flow rate of 1 mL/min. Elution was conducted over 25 min at 25 °C. Identification was performed with FLD set at the excitation wavelength of 280 nm, and emission wavelength of 316 nm. Polyphenols were identified by comparing the retention times of the eluting peaks with those of the standards. Peaks were quantified by using the Empower2 software (Waters, Milford, MA, USA) and compared to external standard calibration. Standard stock solutions were prepared by dissolving reference compounds in DMSO. In vitro simulation of gastrointestinal digestion and the assessment of bioaccessibility of hydroxytyrosol and tyrosol from OPE was conducted by standardized static in vitro digestion method suitable for food. Three-phase digestion process was applied consisting of short salivary phase, simulation of gastric digestion and simulation of duodenal digestion. Briefly, 200 mg of OPE was used alone or mixed with 600 mg of food matrix (Table S4) in 50 mL Falcon tube. The 875 µL of SSF, 125 µL of salivary α amylase solution, 6.25 µL of CaCl2 (0.3 mol/L), and 243.8 µL of water was added, and the mixture incubated at 37 °C for 2 min with constant shaking. The 2.5 mL of reaction mixture were transferred to another Falcon tube and mixed with 1.875 mL of SGF, 1.25 µL of CaCl2 (0.3 mol/L), and 50 µL of HCl (1 mol/L). The pH of the mixture was adjusted to 3, and total volume was adjusted to 5 mL with water. The content of the Falcon tube was vortexed and incubated for 2 h at 37 °C with constant shaking. Every 15 min pH of the mixture was checked and adjusted to 3 if necessary. At the end of simulation of the gastric digestion step, 5 mL of aliquot were transferred to another 50 mL Falcon tube for the simulation of intestinal digestion. The 2.75 mL of SIF, 1.25 mL of pancreatin solution, 0.625 mL of bile salt (160 mmol/L), 10 µL of CaCl2 (0.3 mol/L), and 37.5 µL of NaOH (1 mol/L) were added. The pH was checked and adjusted to 7. Total volume of reaction mixture was adjusted to […], mixtures were vortexed and incubated for 2 h at 37 °C with constant shaking. Every 15 min, pH of the mixture was checked and adjusted to 7 if necessary. After digestion, simulation samples were cooled at −20 °C for 10 min and centrifuged (Heraeus Biofuge Stratos, Hanau, Germany) for 20 min at 4 °C and 4100 rpm. For HPLC analysis of hydroxytyrosol and tyrosol, obtained supernatants were additionally filtered through 0.45 µm polyether sulfone (PES) syringe filters. […]

[2] = as above; type: in vitro ADME; settings: fed vs fasted state biorelevant media (FeSSGF/FeSSIF vs FaSSGF/FaSSIF)
[3] = source not given; cited from earlier work
[4] = parameters: method as in PMID 18209271; settings: after virgin olive oil ingestion; cited from earlier work
[5] = parameters: method as in PMID 11435519; settings: rat model, lipid-rich matrix (olive oil); cited from earlier work
[6] = parameters: method as in PMID 29663812; settings: co-digestion with the test meal; cited from earlier work
Caco-2 Cells = system: Caco-2 Cells; parameters: method as in PMID 29663812; settings: co-digestion with the test meal; cited from earlier work
Caco-2 cell monolayer = test: Transepithelial transport of HTS and TS in Caco-2 monolayers; settings: 2 h, compared to MIX; for transepithelial permeability in presence of glucose: 40 µg/mL HTS and TS with 10 mM glucose; for transepithelial permeability in presence of cellulose: 40 µg/mL HTS and TS with 1% cellulose
[7] = OPE co-digested with apple (peeled, no skin), relative to OPE without food
[8] = OPE co-digested with banana, relative to OPE without food
[9] = OPE co-digested with breakfast cereals, relative to OPE without food
[10] = OPE co-digested with canned tuna, relative to OPE without food
[11] = OPE co-digested with cellulose, relative to OPE without food
[12] = OPE co-digested with corn starch, relative to OPE without food
[13] = OPE co-digested with fresh low fat cheese, relative to OPE without food
[14] = OPE co-digested with honey, relative to OPE without food
[15] = OPE co-digested with milk formula, relative to OPE without food
[16] = OPE co-digested with milk, relative to OPE without food
[17] = OPE co-digested with potato (boiled), relative to OPE without food
[18] = OPE co-digested with silverbeat (blanched), relative to OPE without food
[19] = OPE co-digested with souce bolognese, relative to OPE without food
[20] = OPE co-digested with sour cream, relative to OPE without food
[21] = OPE co-digested with soy flakes, relative to OPE without food
[22] = OPE co-digested with whole-grain bread, relative to OPE without food
[23] = OPE co-digested with yoghurt, relative to OPE without food
[24] = OPE digested without food (reference)

Compound | relative bioaccessibility [1, 7] [%] | relative bioaccessibility [1, 8] [%] | relative bioaccessibility [1, 9] [%] | relative bioaccessibility [1, 10] [%] | relative bioaccessibility [1, 11] [%] | relative bioaccessibility [1, 12] | relative bioaccessibility [1, 13] [%] | relative bioaccessibility [1, 14] | relative bioaccessibility [1, 15] [%] | relative bioaccessibility [1, 16] [%] | relative bioaccessibility [1, 17] [%] | relative bioaccessibility [1, 18] [%] | relative bioaccessibility [1, 19] [%] | relative bioaccessibility [1, 20] [%] | relative bioaccessibility [1, 21] [%] | relative bioaccessibility [1, 22] [%] | relative bioaccessibility [1, 23] [%] | relative bioaccessibility [1, 24] [%] | bioaccessible amount after gastrointestinal digestion [1] [mg/100g] | amount in OPE before gastrointestinal digestion [1] [mg/100g] | further results
OCCc1ccc(O)c(O)c1 [HTS, 3-hydroxytyrosol] | 54.8 ± 0.72 | 65.8 ± 5.05 | 76.0 ± 2.30 | 98.3 ± 4.92 | 108.2 ± 2.24 | 94.9% and 94.9 ± 2.19% | 95.5 ± 8.16 | 89.5% and 89.5 ± 7.26% | 95.9 ± 0.96 | 98.6 ± 3.11 | 92.8 ± 5.88 | 69.3 ± 0.79 | 84.2 ± 4.61 | 102.3 ± 2.18 | 69.8 ± 1.06 | 57.4 ± 0.97 | 92.5 ± 0.82 | 100.0 ± 2.86 | 109.3 | 78.4 | relative bioaccessibility ([1]; OPE co-digested with pectin, relative to OPE without food): 93.2% and 93.2 ± 3.04%; effect of standardized food model (SFM) on bioaccessibility [1]: no effect; influence of food-induced changes of pH and digestion fluid composition on bioaccessibility [2]: do not influence; water solubility [3]: 17.4 mg/mL (≈ 113 mM); time of peak concentration in plasma [4]: around 1 h; time of peak in urine [4]: 0 to 2 h; greater absorption from olive oil compared to aqueous solution [5]: 25%; change of bioaccessibility by presence of foods [6]: −20%; change of intestinal permeability by presence of foods (Caco-2 Cells): −10%; transepithelial permeability in presence of glucose (Caco-2 cell monolayer): significantly improved; transepithelial permeability in presence of cellulose (Caco-2 cell monolayer): did not result in increased permeability; transepithelial permeability in presence of inulin (Caco-2 cell monolayer; 40 µg/mL HTS and TS with 1% inulin): significant reduction
OCCc1ccc(O)cc1 [TS, tyrosol] | 67.2 ± 0.55 | 104.5 ± 2.15 | 79.3 ± 8.70 | 98.5 ± 1.12 | 87.4 | 88.7% and 88.1 ± 1.66% | 106.4 ± 4.35 | 97.8% and 97.8 ± 0.91% | 81.3 ± 3.95 | 94.6 ± 1.63 | 92.4 ± 1.64 | 89.9 ± 4.59 | 92.4 ± 0.46 | 97.4 ± 3.34 | 93.0 ± 1.93 | 73.0 ± 0.66 | 73.8 ± 1.42 | 99.9 ± 6.75 | 27.4 | 20.7 | effect of standardized food model (SFM) on bioaccessibility [1]: no effect; influence of food-induced changes of pH and digestion fluid composition on bioaccessibility [2]: do not influence; water solubility [3]: 25.3 mg/mL (≈ 183 mM); time of peak concentration in plasma [4]: around 1 h; time of peak in urine [4]: 0 to 2 h; greater absorption from olive oil compared to aqueous solution [5]: 25%; transepithelial permeability in presence of glucose (Caco-2 cell monolayer): significantly improved; transepithelial permeability in presence of cellulose (Caco-2 cell monolayer): did not result in increased permeability
